In patent US20110039721A1, “METHOD FOR PREDICTION ABOUT CARCINOGENICITY OF SUBSTANCE IN RODENT” (Chemicals Evaluation and Research Institute, priority 2007, published 2011):

What was measured:
liver = conditions: classification of the substance (Cr+/Cr−); cited from earlier work
rodent = conditions: classification of the substance (C+/C−); cited from earlier work
[1] = classification of the substance (M+/M−); cited from earlier work
[2] = test system: mRNA expressed from the genes (A) to (D) in rat liver; assay: Behavior of genes (mRNA expression level, oligo-DNA microarray) in rat liver after 28-day oral administration; type: in vivo; conditions: for Behavior of gene caused by administration of chemical substance, Gene No. 4846 / Behavior of gene caused by administration of chemical substance, Gene No. 2026 / Behavior of gene caused by administration of chemical substance, Gene No. 4218 / Behavior of gene caused by administration of chemical substance, Gene No. 6182 / Behavior of gene caused by administration of chemical substance, Gene No. 5600: gene group (A); for Behavior of gene caused by administration of chemical substance, Gene No. 4846: Unigene No. Rn.144554; for Behavior of gene caused by administration of chemical substance, Gene No. 2026 / Behavior of gene caused by administration of chemical substance, Gene No. 4218: Unigene No. Rn.167075; for Behavior of gene caused by administration of chemical substance, Gene No. 6182: Unigene No. Rn.5834; for Behavior of gene caused by administration of chemical substance, Gene No. 5600: Unigene No. Rn.9836; for Behavior of gene caused by administration of chemical substance, Gene No. 1494 / Behavior of gene caused by administration of chemical substance, Gene No. 2045 / Behavior of gene caused by administration of chemical substance, Gene No. 2203: gene group (B); for Behavior of gene caused by administration of chemical substance, Gene No. 1494: Unigene No. Rn.1430; for Behavior of gene caused by administration of chemical substance, Gene No. 2045: Unigene No. Rn.19329; for Behavior of gene caused by administration of chemical substance, Gene No. 2203: Unigene No. Rn.21240; for Behavior of gene caused by administration of chemical substance, Gene No. 533 / Behavior of gene caused by administration of chemical substance, Gene No. 725 / Behavior of gene caused by administration of chemical substance, Gene No. 1163 / Behavior of gene caused by administration of chemical substance, Gene No. 4973 / Behavior of gene caused by administration of chemical substance, Gene No. 4095 / Behavior of gene caused by administration of chemical substance, Gene No. 1334 / Behavior of gene caused by administration of chemical substance, Gene No. 6620 / Behavior of gene caused by administration of chemical substance, Gene No. 6303 / Behavior of gene caused by administration of chemical substance, Gene No. 5878 / Behavior of gene caused by administration of chemical substance, Gene No. 1131 / Behavior of gene caused by administration of chemical substance, Gene No. 1562 / Behavior of gene caused by administration of chemical substance, Gene No. 1741 / Behavior of gene caused by administration of chemical substance, Gene No. 893 / Behavior of gene caused by administration of chemical substance, Gene No. 6026 / Behavior of gene caused by administration of chemical substance, Gene No. 154 / Behavior of gene caused by administration of chemical substance, Gene No. 1993 / Behavior of gene caused by administration of chemical substance, Gene No. 813 / Behavior of gene caused by administration of chemical substance, Gene No. 2494 / Behavior of gene caused by administration of chemical substance, Gene No. 2546 / Behavior of gene caused by administration of chemical substance, Gene No. 3776 / Behavior of gene caused by administration of chemical substance, Gene No. 3929 / Behavior of gene caused by administration of chemical substance, Gene No. 1119 / Behavior of gene caused by administration of chemical substance, Gene No. 6742 / Behavior of gene caused by administration of chemical substance, Gene No. 5634: gene group (C); for Behavior of gene caused by administration of chemical substance, Gene No. 533: Unigene No. Rn.106184; for Behavior of gene caused by administration of chemical substance, Gene No. 725: Unigene No. Rn.108075; for Behavior of gene caused by administration of chemical substance, Gene No. 1163: Unigene No. Rn.11766; for Behavior of gene caused by administration of chemical substance, Gene No. 4973: Unigene No. Rn.118529; for Behavior of gene caused by administration of chemical substance, Gene No. 4095: Unigene No. Rn.119024; for Behavior of gene caused by administration of chemical substance, Gene No. 1334 / Behavior of gene caused by administration of chemical substance, Gene No. 6620: Unigene No. Rn.120914; for Behavior of gene caused by administration of chemical substance, Gene No. 6303: Unigene No. Rn.123063; for Behavior of gene caused by administration of chemical substance, Gene No. 5878: Unigene No. Rn.143213; for Behavior of gene caused by administration of chemical substance, Gene No. 1131: Unigene No. Rn.144946; for Behavior of gene caused by administration of chemical substance, Gene No. 1562: Unigene No. Rn.14744; for Behavior of gene caused by administration of chemical substance, Gene No. 1741: Unigene No. Rn.1647; for Behavior of gene caused by administration of chemical substance, Gene No. 893: Unigene No. Rn.164817; for Behavior of gene caused by administration of chemical substance, Gene No. 6026: Unigene No. Rn.167685; for Behavior of gene caused by administration of chemical substance, Gene No. 154: Unigene No. Rn.185941; for Behavior of gene caused by administration of chemical substance, Gene No. 1993: Unigene No. Rn.18728; for Behavior of gene caused by administration of chemical substance, Gene No. 813: Unigene No. Rn.201760; for Behavior of gene caused by administration of chemical substance, Gene No. 2494: Unigene No. Rn.23969; for Behavior of gene caused by administration of chemical substance, Gene No. 2546: Unigene No. Rn.24561; for Behavior of gene caused by administration of chemical substance, Gene No. 3776: Unigene No. Rn.43232; for Behavior of gene caused by administration of chemical substance, Gene No. 3929: Unigene No. Rn.4620; for Behavior of gene caused by administration of chemical substance, Gene No. 1119: Unigene No. Rn.9757; for Behavior of gene caused by administration of chemical substance, Gene No. 6742: Unigene No. Rn.9779; for Behavior of gene caused by administration of chemical substance, Gene No. 5634: Unigene No. Rn.9862; for Behavior of gene caused by administration of chemical substance, Gene No. 5726: gene group (D), Unigene No. Rn.9939
Procedure, shortened: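 Rat liver RNA after 28 days of daily gavage dosing (male F344, 5 weeks old, four per group). A change reaching 1.5-fold, or 1/1.5, against solvent control scores as significant; opposite direction versus another carcinogen scores as not significant.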

SMILES | Liver carcinogenicity (liver) | Carcinogenicity (rodent) | Mutagenicity by Ames test [1] | Behavior of gene caused by administration of chemical substance, Gene No. 4846 [2] | Behavior of gene caused by administration of chemical substance, Gene No. 2026 [2] | Behavior of gene caused by administration of chemical substance, Gene No. 4218 [2] | Behavior of gene caused by administration of chemical substance, Gene No. 6182 [2] | Behavior of gene caused by administration of chemical substance, Gene No. 5600 [2] | Behavior of gene caused by administration of chemical substance, Gene No. 1494 [2] | Behavior of gene caused by administration of chemical substance, Gene No. 2045 [2] | Behavior of gene caused by administration of chemical substance, Gene No. 2203 [2] | Behavior of gene caused by administration of chemical substance, Gene No. 533 [2] | Behavior of gene caused by administration of chemical substance, Gene No. 725 [2] | Behavior of gene caused by administration of chemical substance, Gene No. 1163 [2] | Behavior of gene caused by administration of chemical substance, Gene No. 4973 [2] | Behavior of gene caused by administration of chemical substance, Gene No. 4095 [2] | Behavior of gene caused by administration of chemical substance, Gene No. 1334 [2] | Behavior of gene caused by administration of chemical substance, Gene No. 6620 [2] | Behavior of gene caused by administration of chemical substance, Gene No. 6303 [2] | Behavior of gene caused by administration of chemical substance, Gene No. 5878 [2] | further results
Cl.Cl.Nc1ccc(N)cc1 [TS059, p-Phenylenediamine 2HCl] | Cr− | C− | M+ | − | − | − | − | − | − | − | − | − | − | − | + | + | + | + | − | − | Behavior of gene caused by administration of chemical substance, Gene No. 1131 [2]: −; Behavior of gene caused by administration of chemical substance, Gene No. 1562 [2]: +; Behavior of gene caused by administration of chemical substance, Gene No. 1741 [2]: +; Behavior of gene caused by administration of chemical substance, Gene No. 893 [2]: +; Behavior of gene caused by administration of chemical substance, Gene No. 6026 [2]: −; Behavior of gene caused by administration of chemical substance, Gene No. 154 [2]: +; Behavior of gene caused by administration of chemical substance, Gene No. 1993 [2]: +; Behavior of gene caused by administration of chemical substance, Gene No. 813 [2]: −; Behavior of gene caused by administration of chemical substance, Gene No. 2494 [2]: −; Behavior of gene caused by administration of chemical substance, Gene No. 2546 [2]: +; Behavior of gene caused by administration of chemical substance, Gene No. 3776 [2]: +; Behavior of gene caused by administration of chemical substance, Gene No. 3929 [2]: +; Behavior of gene caused by administration of chemical substance, Gene No. 1119 [2]: +; Behavior of gene caused by administration of chemical substance, Gene No. 6742 [2]: −; Behavior of gene caused by administration of chemical substance, Gene No. 5634 [2]: +; Behavior of gene caused by administration of chemical substance, Gene No. 5726 [2]: +
OC[C@@H](O)[C@@H](O)[C@H](O)[C@H](O)CO [TS009, D-Mannitol] | Cr− | C− | M− | − | − | − | − | − | − | − | − | − | − | − | − | − | − | − | − | − | Behavior of gene caused by administration of chemical substance, Gene No. 1131 [2]: −; Behavior of gene caused by administration of chemical substance, Gene No. 1562 [2]: −; Behavior of gene caused by administration of chemical substance, Gene No. 1741 [2]: −; Behavior of gene caused by administration of chemical substance, Gene No. 893 [2]: −; Behavior of gene caused by administration of chemical substance, Gene No. 6026 [2]: −; Behavior of gene caused by administration of chemical substance, Gene No. 154 [2]: −; Behavior of gene caused by administration of chemical substance, Gene No. 1993 [2]: −; Behavior of gene caused by administration of chemical substance, Gene No. 813 [2]: −; Behavior of gene caused by administration of chemical substance, Gene No. 2494 [2]: −; Behavior of gene caused by administration of chemical substance, Gene No. 2546 [2]: −; Behavior of gene caused by administration of chemical substance, Gene No. 3776 [2]: −; Behavior of gene caused by administration of chemical substance, Gene No. 3929 [2]: −; Behavior of gene caused by administration of chemical substance, Gene No. 1119 [2]: −; Behavior of gene caused by administration of chemical substance, Gene No. 6742 [2]: −; Behavior of gene caused by administration of chemical substance, Gene No. 5634 [2]: −; Behavior of gene caused by administration of chemical substance, Gene No. 5726 [2]: −
